From patent US11185531B2, “Arginine methyltransferase inhibitors and uses thereof” (Epizyme, Inc., priority 2013, dated 2021) come the findings set out here.

Where only a bound is given, the exact number is not on record here.

The target in one assay is T1, human PRMT6 (Homo sapiens, UniProt Q96LA8).
T1 construct: Flag-PRMT6-His was eluted with 200 ug/ml FLAG peptide in the same buffer; made in house; host or cells: HEK 293F cells (BacMam baculovirus, pFastBacMam)
In words: PRMT6 Biochemical Assay (3H-SAM Flashplate, peptide substrate). As to conditions: 30 min preincubation. From the text: Peptide representative of human histone H4 residues 36-50 was synthesized with an N-terminal linker-affinity tag motif and a C-terminal amide cap by 21st Century Biochemicals. The peptide was purified by high-performance liquid chromatography (HPLC) to greater than 95% purity and confirmed by liquid chromatography mass spectrometry (LC-MS). The sequence was Biot-Ahx-[…]-amide and contained a monomethylated lysine at position 44 (SEQ ID NO:5).
Full-length human PRMT6 (NM_018137.2) transcript clone was amplified from an HEK 293 cDNA library, incorporating a flanking 5′ sequence encoding a FLAG tag ([…]) (SEQ ID NO:6) fused directly to Ser 2 of PRMT6 and a 3′ sequence encoding a hexa His sequence (HHHHHH) fused directly to Asp 375. The amplified gene was subcloned into pFastBacMam (Viva Biotech).
Column was washed with 20 mM imidazole in the same buffer and Flag-PRMT6-His was eluted with 150 mM imidazole. Pooled fractions were dialysed against buffer Ni-A and further purified by anti-flag M2 affinity chromatography. Flag-PRMT6-His was eluted with 200 ug/ml FLAG peptide in the same buffer. Pooled fractions were dialysed in 20 mM Tris, 150 mM NaCl, 10% glycerol and 5 mM 3-mercaptoethanol, pH 7.8. The purity of recovered protein was 95%.
General Procedure for PRMT6 Enzyme Assays on Peptide Substrates.
The assays were all performed in a buffer consisting of 20 mM Bicine (pH=7.6), 1 mM TCEP, 0.005% BSG, and 0.002% Tween 20, prepared on the day of use. Compounds in 100% DMSO (1 ul) were spotted into a polypropylene 384-well V-bottom plates (Greiner) using a Platemate Plus outfitted with a 384-channel head (Thermo Scientific). DMSO (1 ul) was added to Columns 11, 12, 23, 24, rows A-H for the maximum signal control and 1 ul of SAH, a known product and inhibitor of PRMT6, was added to columns 11, 12, 23, 24, rows I-P for the minimum signal control. A cocktail (40 ul) containing the PRMT6 enzyme was added by Multidrop Combi (Thermo-Fisher). The compounds were allowed to incubate with PRMT6 for 30 min at room temperature, then a cocktail (10 ul) containing SAM and peptide was added to initiate the reaction (final volume=51 ul). The final concentrations of the components were as follows: PRMT6 was 1 nM, ^3H-SAM was 200 nM, non-radiolabeled SAM was 250 nM, peptide was 75 nM, SAH in the minimum signal control wells was 1 mM, and the DMSO concentration was 2%. The assays were stopped by the addition of non-radiolabeled SAM (10 ul) to a final concentration of 400 uM, which dilutes the ^3H-SAM to a level where its incorporation into the peptide substrate is no longer detectable. 50 ul of the reaction in the 384-well polypropylene plate was then transferred to a 384-well Flashplate and the biotinylated peptides were allowed to bind to the streptavidin surface for at least 1 hour before being washed once with 0.1% Tween20 in a Biotek ELx405 plate washer. The plates were then read in a PerkinElmer TopCount plate reader to measure the quantity of ^3H-labeled peptide bound to the Flashplate surface, measured as disintegrations per minute (dpm) or alternatively, referred to as counts per minute (cpm).
(§1) Where dpm=disintegrations per minute, cmpd=signal in assay well, and min and max are the respective minimum and maximum signal controls.
(§2) Where top and bottom are the normally allowed to float, but may be fixed at 100 or 0 respectively in a 3-parameter fit. The Hill Coefficient normally allowed to float but may also be fixed at 1 in a 3-parameter fit. Y is the % inhibition and X is the compound concentration.

The next assay has as its target T2, human PRMT1 (Homo sapiens, UniProt Q99873).
T2 construct: GST-tagged PRMT1; made in house; host or cells: High Five insect cells (baculovirus)
The assay is described as follows: PRMT1 Biochemical Assay (3H-SAM Flashplate, peptide substrate). Particulars: 30 min preincubation.
Text: Peptide representative of human histone H4 residues 36-50 was synthesized with an N-terminal linker-affinity tag motif and a C-terminal amide cap by 21st Century Biochemicals. The peptide was purified by high-performance liquid chromatography (HPLC) to greater than 95% purity and confirmed by liquid chromatography mass spectrometry (LC-MS). The sequence was Biot-Ahx-[…]-amide (SEQ ID NO.: 1).
Full-length human PRMT1 isoform 1 (NM_001536.5) transcript clone was amplified from an HEK 293 cDNA library, incorporating flanking 5′ sequence encoding a FLAG tag ([…]) (SEQ ID NO:2) fused directly to Met 1 of PRMT1. The amplified gene was subcloned into pFastBacI (Life Technologies) modified to encode an N-terminal GST tag and a TEV cleavage sequence
GST-tagged PRMT1 was eluted with 50 mM Tris, 2 mM glutathione, pH 7.8, dialysed in buffer A and concentrated to 1 mg/mL. The purity of recovered protein was 73%. Reference: Wasilko, D. J. and S. E. Lee: “TIPS: titerless infected-cells preservation and scale-up” Bioprocess J., 5 (2006), pp. 29-32.
General Procedure for PRMT1 Enzyme Assays on Peptide Substrates.
The assays were all performed in a buffer consisting of 20 mM Bicine (pH=7.6), 1 mM TCEP, 0.005% BSG, and 0.002% Tween 20, prepared on the day of use. Compounds in 100% DMSO (1 ul) were spotted into a polypropylene 384-well V-bottom plates (Greiner) using a Platemate Plus outfitted with a 384-channel head (Thermo Scientific). DMSO (1 ul) was added to Columns 11, 12, 23, 24, rows A-H for the maximum signal control and 1 ul of SAH, a known product and inhibitor of PRMT1, was added to columns 11, 12, 23, 24, rows I-P for the minimum signal control. A cocktail (40 ul) containing the PRMT1 enzyme was added by Multidrop Combi (Thermo-Fisher). The compounds were allowed to incubate with PRMT1 for 30 min at room temperature, then a cocktail (10 ul) containing SAM and peptide was added to initiate the reaction (final volume=51 ul). The final concentrations of the components were as follows: PRMT1 was 0.5 nM, ^3H-SAM was 200 nM, non-radiolabeled SAM was 1.5 uM, peptide was 20 nM, SAH in the minimum signal control wells was 1 mM, and the DMSO concentration was 2%. The assays were stopped by the addition of non-radiolabeled SAM (10 ul) to a final concentration of 300 uM, which dilutes the ^3H-SAM to a level where its incorporation into the peptide substrate is no longer detectable. 50 ul of the reaction in the 384-well polypropylene plate was then transferred to a 384-well Flashplate and the biotinylated peptides were allowed to bind to the streptavidin surface for at least 1 hour before being washed once with 0.1% Tween20 in a Biotek ELx405 plate washer. The plates were then read in a PerkinElmer TopCount plate reader to measure the quantity of ^3H-labeled peptide bound to the Flashplate surface, measured as disintegrations per minute (dpm) or alternatively, referred to as counts per minute (cpm).
as §1, §2

T2 sequence (Q99873 with tags, fused parts or gaps): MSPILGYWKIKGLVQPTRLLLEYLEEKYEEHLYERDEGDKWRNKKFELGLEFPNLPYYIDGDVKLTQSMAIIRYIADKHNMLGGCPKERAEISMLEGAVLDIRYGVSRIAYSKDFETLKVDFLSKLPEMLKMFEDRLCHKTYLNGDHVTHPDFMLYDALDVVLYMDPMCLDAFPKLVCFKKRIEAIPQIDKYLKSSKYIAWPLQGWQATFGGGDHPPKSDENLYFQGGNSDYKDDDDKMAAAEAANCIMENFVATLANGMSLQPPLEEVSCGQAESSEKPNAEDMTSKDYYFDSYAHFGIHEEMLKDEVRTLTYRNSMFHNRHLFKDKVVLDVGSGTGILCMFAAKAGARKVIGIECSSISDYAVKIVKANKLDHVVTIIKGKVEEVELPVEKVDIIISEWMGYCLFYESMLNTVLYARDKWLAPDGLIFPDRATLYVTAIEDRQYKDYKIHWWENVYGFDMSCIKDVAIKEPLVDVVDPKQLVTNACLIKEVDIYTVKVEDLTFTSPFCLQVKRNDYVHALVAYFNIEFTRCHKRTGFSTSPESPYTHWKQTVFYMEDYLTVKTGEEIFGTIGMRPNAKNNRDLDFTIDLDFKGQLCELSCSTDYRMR
T1 sequence (Q96LA8 with tags, fused parts or gaps): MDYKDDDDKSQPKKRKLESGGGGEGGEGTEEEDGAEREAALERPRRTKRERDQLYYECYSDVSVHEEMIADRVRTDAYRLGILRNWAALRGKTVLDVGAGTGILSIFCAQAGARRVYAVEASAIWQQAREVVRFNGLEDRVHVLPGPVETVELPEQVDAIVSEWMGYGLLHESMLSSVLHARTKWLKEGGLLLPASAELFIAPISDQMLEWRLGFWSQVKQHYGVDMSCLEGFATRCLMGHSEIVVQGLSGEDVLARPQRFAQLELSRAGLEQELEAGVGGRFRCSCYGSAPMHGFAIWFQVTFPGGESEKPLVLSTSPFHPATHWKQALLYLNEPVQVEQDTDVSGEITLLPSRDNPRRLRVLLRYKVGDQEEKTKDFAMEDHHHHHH

The term IC50 denotes the concentration that inhibits the measured activity by half. On to `CNCCN(C)Cc1c[nH]nc1C#Cc1cccc(OC)c1` [Compound 1], for which the half-maximal inhibitory concentration (IC50) on human PRMT6 and on human PRMT1 was under 100 nM in each case.

As to `CNCCN(C)Cc1c[nH]nc1C#Cc1ccc(C(C)(C)C)cc1` [Compound 2], the IC50 against human PRMT6 and at human PRMT1 was under 100 nM throughout.

On to `CNCCN(C)Cc1c[nH]nc1C#Cc1ccccc1` [Compound 3], for which the IC50 on human PRMT6 is under 100 nM.

On to `CNCCN(C)Cc1c[nH]nc1C#Cc1ccc(F)cc1` [Compound 4], for which the IC50 against human PRMT6 and at human PRMT1 was under 100 nM in each case.

As for `CNCCN(C)Cc1c[nH]nc1/C=C/c1ccc(-c2ccccc2)cc1` [Compound 5], the IC50 against human PRMT6 and at human PRMT1 was under 100 nM each time.

With `CNCCN(C)Cc1c[nH]nc1/C=C/c1ccc(C(F)(F)F)cc1` [Compound 6], the IC50 at human PRMT6 and against human PRMT1 was under 100 nM in each case.

As to `CNCCN(C)Cc1c[nH]nc1/C=C/c1ccc(OC)cc1` [Compound 7], the IC50 at human PRMT6 and at human PRMT1 was under 100 nM throughout.

As for `Cc1ccc(/C=C/c2n[nH]cc2CN(C)CCN)cc1` [Compound 8], the IC50 against human PRMT6 and against human PRMT1 was under 100 nM throughout.

`CN(CCN)Cc1c[nH]nc1C1=CCOCC1` [Compound 10]: the IC50 on human PRMT6 and at human PRMT1 was 101 to 1000 nM throughout.

Regarding `COc1cc(/C=C/c2n[nH]cc2CN(C)CCN)cc(OC)c1` [Compound 11], the IC50 at human PRMT6 and against human PRMT1 was under 100 nM each time.

In the case of `CN(CCN)Cc1c[nH]nc1/C=C/c1ccc(F)cc1F` [Compound 13], the IC50 on human PRMT6 and against human PRMT1 was under 100 nM throughout.

On to `CN(CCN)Cc1c[nH]nc1/C=C/c1cc(C(F)(F)F)cc(C(F)(F)F)c1` [Compound 14], for which the figures for the IC50 against human PRMT6 and at human PRMT1 were 101 to 1000 nM and under 100 nM, respectively.

Take `CN(CCN)Cc1c[nH]nc1/C=C/c1cc(F)cc(F)c1` [Compound 15]: the IC50 against human PRMT6 and against human PRMT1 was under 100 nM in each case.

For `CN(CCN)Cc1c[nH]nc1/C=C/c1cccc(C(F)(F)F)c1` [Compound 16], the concentration for half-maximal inhibition (IC50) on human PRMT6 was 101 to 1000 nM; against human PRMT1, under 100 nM.

Turning to `COc1cccc(/C=C/c2n[nH]cc2CN(C)CCN)c1` [Compound 17], the IC50 against human PRMT6 and against human PRMT1 was under 100 nM throughout.

On to `CN(CCN)Cc1c[nH]nc1/C=C/c1ccc(C(F)(F)F)cc1` [Compound 18], for which the IC50 on human PRMT6 and against human PRMT1 was under 100 nM in each case.

On to `COC/C=C/c1n[nH]cc1CN(C)CCN` [Compound 19], for which the IC50 against human PRMT6 and at human PRMT1 was 101 to 1000 nM throughout.

For `CN(CCN)Cc1c[nH]nc1/C=C/c1cccc(F)c1` [Compound 20], the half-inhibitory concentration (IC50) on human PRMT6 and against human PRMT1 was under 100 nM throughout.

Consider `CC(C)c1n[nH]cc1CN(C)CCN` [Compound 21], for which the IC50 against human PRMT6 was 101 to 1000 nM; against human PRMT1, 1010 to 3000 nM.

As for `CN(CCN)Cc1c[nH]nc1C1CCCCC1` [Compound 22], the IC50 on human PRMT6 and against human PRMT1 was under 100 nM each time.

Regarding `CN(CCN)Cc1c[nH]nc1CCc1ccc(F)cc1` [Compound 23, N^1-((3-(4-fluorophenethyl)-1H-pyrazol-4-yl)methyl)-N^1-methylethane-1,2-diamine], the IC50 at human PRMT6 and against human PRMT1 was under 100 nM each time.

In the case of `CN(CCN)Cc1c[nH]nc1/C=C/Cc1ccccc1` [Compound 24], the IC50 against human PRMT6 is 101 to 1000 nM; against human PRMT1 it was under 100 nM.

Consider `CN(CCN)Cc1c[nH]nc1C1=CCCC1` [Compound 25], for which the IC50 at human PRMT6 and against human PRMT1 was 101 to 1000 nM in each case.

For `CN(CCN)Cc1c[nH]nc1C1CCC1` [Compound 26], the IC50 against human PRMT6 is 101 to 1000 nM.

In the case of `CC(C)Cc1n[nH]cc1CN(C)CCN` [Compound 28, N^1-((3-iso-butyl-1H-pyrazol-4-yl)methyl)-N^1-methylethane-1,2-diamine], the IC50 against human PRMT6 is under 100 nM; against human PRMT1 it was 101 to 1000 nM.

Turning to `CCCc1n[nH]cc1CN(C)CCN` [Compound 29], the IC50 on human PRMT6 and against human PRMT1 was 101 to 1000 nM throughout.

In turn, `Cc1n[nH]cc1CN(C)CCN` [Compound 30] had an IC50 against human PRMT6 of 101 to 1000 nM.

As to `CN(CCN)Cc1c[nH]nc1C1CCCC1` [Compound 31], on human PRMT6, the IC50 lay within 3010 to 10000 nM.

On to `CNCCN(C)Cc1c[nH]nc1C1CCN(C(=O)Cc2ccccc2)CC1` [Compound 32], for which the IC50 at human PRMT6 was under 100 nM; on human PRMT1, 101 to 1000 nM.

`CN(CCN)Cc1n[nH]cc1C1CCCCC1` [Compound 33]: the IC50 against human PRMT6 and against human PRMT1 was under 100 nM in each case.

Regarding `CNCCN(C)Cc1c[nH]nc1C1CCN(C(=O)C(C)C)CC1` [Compound 34], the IC50 on human PRMT6 and on human PRMT1 was under 100 nM each time.

As for `CC1CCC(c2c[nH]nc2CN(C)CCN)CC1` (centres unmarked) [Compound 35], the IC50 at human PRMT6 and on human PRMT1 was under 100 nM each time.

As to `CN(CCN)Cc1n[nH]cc1C1CCC(C)(C)CC1` [Compound 36], the IC50 against human PRMT6 and on human PRMT1 was under 100 nM in each case.

With `CC1CCC(c2n[nH]cc2CN(C)CCN)CC1` (centres unmarked) [Compound 37, N^1-methyl-N^1-((3-(4-methylcyclohexyl)-1H-pyrazol-4-yl)methyl)ethane-1,2-diamine], the IC50 on human PRMT6 and against human PRMT1 was under 100 nM throughout.

Turning to `CNCCN(C)Cc1c[nH]nc1C1CCN(CC(C)C)CC1` [Compound 39, N^1-((3-(1-isobutylpiperidin-4-yl)-1H-pyrazol-4-yl)methyl)-N^1,N^2-dimethylethane-1,2-diamine], the IC50 on human PRMT6 is under 100 nM.
